# Source: patent US7943628B2, “Pyrimidine derivatives” (Pfizer Limited, priority 2005, dated 2011)
# Molecular target: T1, histamine H4 receptor (Homo sapiens, UniProt Q9H3N8)
# T1 construct: expressed in transfected cells; host or cells: CHO cells
# Assay: H4 binding, method 1 ([3H]-histamine filtration binding on CHO cell membranes)
# Details: 1.5 h
# Method: Cell pellets from CHO cells expressing the histamine H4 receptor were homogenised in ice-cold 50 mM Tris-HCl/0.5 mM CaCl2 buffer containing a protease inhibitor cocktail (Roche®, United Kingdom) using a ground glass homogeniser. Homogenates were centrifuged at 48000 g for 30 min at 4° C. The membrane pellet was resuspended in fresh buffer and the centrifugation step was repeated as described above. The membrane pellet was resuspended in 50 mM Tris-HCl in the same volume as the original cell pellet. Aliquots of membrane preparations were stored at −80° C. and were used for [^3H]-Histamine binding experiments.
# Cell membranes (20-35 μg/well) were incubated for 90 minutes shaking at room temperature with 3 nM [2,5-^3H]Histamine dihydrochloride (30-60 Ci/mmol) in 50 mM Tris-HCl (pH 7.4), with or without competing H4 ligands. The reaction was terminated by rapid filtration through 0.5% polyethylenimine-soaked Unifilter GF/B plates (Packard) followed by three washes with 1 ml ice-cold 50 mM Tris-HCl. Filters were dried for 45 min at 45° C. and bound radiolabel was determined using scintillation counting techniques. Non-specific binding was defined with 10 μM JNJ7777120.
# T1 sequence (Q9H3N8 whole entry): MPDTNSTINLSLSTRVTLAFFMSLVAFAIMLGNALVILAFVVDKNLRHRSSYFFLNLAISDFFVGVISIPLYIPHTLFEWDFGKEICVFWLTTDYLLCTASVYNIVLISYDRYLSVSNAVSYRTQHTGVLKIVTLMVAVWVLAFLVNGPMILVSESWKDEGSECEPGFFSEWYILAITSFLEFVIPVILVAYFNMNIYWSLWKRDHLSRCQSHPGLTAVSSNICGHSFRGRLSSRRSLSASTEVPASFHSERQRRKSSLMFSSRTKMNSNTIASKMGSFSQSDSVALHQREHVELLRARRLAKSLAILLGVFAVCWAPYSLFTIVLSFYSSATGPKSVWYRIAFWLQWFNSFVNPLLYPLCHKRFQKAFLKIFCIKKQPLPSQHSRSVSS
SMILES,inhibition at 10 µM,inhibition at 20 µM
"CC(C)(C)CNc1cc(N2C[C@H]3C[C@@]3(N)C2)ncn1 [Example 297, (1S,5R)-3-{6-[(2,2-Dimethylpropyl)amino]pyrimidin-4-yl}-3-azabicyclo[3.1.0]hexan-1-amine]",30%,
"CC(C)(C)CCNc1cc(N2CC(N3CCOCC3)C2)ncn1 [Example 312, N-(3,3-Dimethylbutyl)-6-(3-morpholin-4-ylazetidin-1-yl)pyrimidin-4-amine]",,21%
"CNC1CN(c2cc(N3CCOCC3)nc(N)n2)C1 [Example 268, 4-[3-(Methylamino)azetidin-1-yl]-6-morpholin-4-ylpyrimidin-2-amine]",16%,
"CCNc1cc(N2CCCC(NC)C2)nc(N)n1 (centres unmarked) [Example 324, N^4-Ethyl-6-[3-(methylamino)piperidin-1-yl]pyrimidine-2,4-diamine]",,55%
"CNC1CCCN(c2cc(NCC3CC3)nc(N)n2)C1 (centres unmarked) [Example 294, N^4-(Cyclopropylmethyl)-6-[3-(methylamino)piperidin-1-yl]pyrimidine-2,4-diamine]",,91%

# Same assay, conditions: H4 binding, method 1; Ki calculated from IC50 (Cheng-Prussoff)
row,SMILES,Ki
1,"NCCNc1cc(NCC2CC2)ncn1 [Example 220, N-(2-Aminoethyl)-N′-(cyclopropylmethyl)pyrimidine-4,6-diamine]",88 nM
2,"CCCNc1cc(N2CC[C@@H](NC)C2)nc(N)n1 [Example 180, 6-[(3R)-3-(Methylamino)pyrrolidin-1-yl]-N^4-propylpyrimidine-2,4-diamine]",17.4 nM
3,"Nc1nc(NCC2CC2)cc(N2CC(N)C2)n1 [Example 171, 6-(3-Aminoazetidin-1-yl)-N^4-(cyclopropylmethyl)pyrimidine-2,4-diamine]",9.21 nM
4,"CCCNc1cc(N2CCN[C@@H](C)C2)ncn1 [Example 258, 6-[(3S)-3-Methylpiperazin-1-yl]-N-propylpyrimidin-4-amine]",509 nM
5,"CCNc1cc(N2CCNCC2)nc(N)n1 [Example 214, N^4-Ethyl-6-piperazin-1-ylpyrimidine-2,4-diamine]",54.4 nM
6,"Nc1nc(NCC2CC2)cc(N2CC[C@@H](N)C2)n1 [Example 215, 6-[(3R)-3-Aminopyrrolidin-1-yl]-N^4-(cyclopropylmethyl)pyrimidine-2,4-diamine]",57.3 nM
7,"CN[C@@H]1CCN(c2cc(NC34CC(C3)C4)nc(N)n2)C1 [Example 138, N^4-Bicyclo[1.1.1]pent-1-yl-6-[(3R)-3-(methylamino)pyrrolidin-1-yl]pyrimidine-2,4-diamine]",5.8 nM
8,"Nc1nc(NCC2CC2)cc(N2CCNCC2)n1 [Example 154, N^4-(Cyclopropylmethyl)-6-piperazin-1-ylpyrimidine-2,4-diamine]",1.71 nM
9,"CN[C@@H]1CCN(c2cc(NCc3ccccc3F)nc(N)n2)C1 [Example 253, N^4-(2-Fluorobenzyl)-6-[(3R)-3-(methylamino)pyrrolidin-1-yl]pyrimidine-2,4-diamine]",380 nM
10,"CN[C@H]1CCN(c2cc(NCCC(C)(C)C)nc(N)n2)C1 [Example 211, N^4-(3,3-Dimethylbutyl)-6-[(3S)-3-(methylamino)pyrrolidin-1-yl]pyrimidine-2,4-diamine]",49.3 nM
11,"CNC1(C)CN(c2cc(NC(C)C)ncn2)C1 [Example 261, N-Isopropyl-6-[3-methyl-3-(methylamino)azetidin-1-yl]pyrimidin-4-amine]",617 nM
12,"CNCCNc1cc(NCC(C)(C)C)nc(N)n1 [Example 143, N^4-(2,2-Dimethylpropyl)-N^6-[2-(methylamino)ethyl]pyrimidine-2,4,6-triamine]",72.4 nM
13,"CCCCNc1cc(N2CC[C@@H](NC)C2)ncn1 [Example 147, N-Butyl-6-[(3R)-3-(methylamino)pyrrolidin-1-yl]pyrimidin-4-amine]",17.3 nM
14,"CCCNc1cc(N2CC(N)C2)nc(N)n1 [Example 232, 6-(3-Aminoazetidin-1-yl)-N^4-propylpyrimidine-2,4-diamine]",13.9 nM
15,"CN[C@@H]1CCN(c2cc(N3CC(F)(F)C3)nc(N)n2)C1 [Example 275, 4-(3,3-Difluoroazetidin-1-yl)-6-[(3R)-3-(methylamino)pyrrolidin-1-yl]pyrimidin-2-amine]",1160 nM
16,"CN[C@@H]1CCN(c2cc(NC3CCC3)ncn2)C1 [Example 181, N-Cyclobutyl-6-[(3R)-3-(methylamino)pyrrolidin-1-yl]pyrimidin-4-amine]",17.6 nM
17,"CC(C)CNc1cc(N2CCN(C)CC2)ncn1 [Example 105, N-Isobutyl-6-(4-methylpiperazin-1-yl)pyrimidin-4-amine]",68.8 nM
18,"CC(C)Nc1cc(N2CCN(C)CC2)ncn1 [Example 104, N-Isopropyl-6-(4-methylpiperazin-1-yl)pyrimidin-4-amine]",118 nM
19,"CNC1CN(c2cc(NCCOC)nc(N)n2)C1 [Example 182, N^4-(2-Methoxyethyl)-6-[3-(methylamino)azetidin-1-yl]pyrimidine-2,4-diamine]",19.8 nM
20,"CC(C)Nc1cc(N2CCC(N)CC2)nc(N)n1 [Example 234, 6-(4-Aminopiperidin-1-yl)-N^4-isopropylpyrimidine-2,4-diamine]",177 nM
21,"CN1CCCN(c2cc(NC3CC3)ncn2)CC1 [Example 224, N-Cyclopropyl-6-(4-methyl-1,4-diazepan-1-yl)pyrimidin-4-amine]",101 nM
22,"CC(C)(C)CNc1cc(N2CC(N)C2)nc(N)n1 [Example 190, 6-(3-Aminoazetidin-1-yl)-N^4-(2,2-dimethylpropyl)pyrimidine-2,4-diamine]",27.7 nM
23,"CCC(C)CNc1cc(N2CC(NC)C2)nc(N)n1 (centres unmarked) [Example 128, 6-[3-(Methylamino)azetidin-1-yl]-N^4-(2-methylbutyl)pyrimidine-2,4-diamine]",0.805 nM
24,"Nc1nc(NCC2CC2)cc(N2C[C@@H]3CCCN[C@@H]3C2)n1 [Example 210, N^4-(Cyclopropylmethyl)-6-[(4aS,7aS)-octahydro-6H-pyrrolo[3,4-b]pyridin-6-yl]pyrimidine-2,4-diamine]",48.9 nM
25,"CN1CCCC(Nc2cc(NCCC(C)(C)C)ncn2)C1 (centres unmarked) [Example 288, N-(3,3-Dimethylbutyl)-N′-(1-methylpiperidin-3-yl)pyrimidine-4,6-diamine]",2400 nM
26,"CC(C)CCNc1cc(N2CCN(C)CC2)ncn1 [Example 100, N-(3-Methylbutyl)-6-(4-methylpiperazin-1-yl)pyrimidin-4-amine]",40.2 nM
27,"CC(C)NC1CN(c2cc(NCC(C)(C)C)nc(N)n2)C1 [Example 145, N^4-(2,2-Dimethylpropyl)-6-[3-(isopropylamino)azetidin-1-yl]pyrimidine-2,4-diamine]",14.3 nM
28,"CN[C@@H]1CCN(c2cc(NC3CC3)ncn2)C1 [Example 203, N-Cyclopropyl-6-[(3R)-3-(methylamino)pyrrolidin-1-yl]pyrimidin-4-amine]",37.9 nM

# Same assay, conditions: at 10 μM
row,SMILES,"Method 1, % at 10 μM"
1,"CN(C)C1[C@H]2CN(c3cc(NCCC(C)(C)C)ncn3)C[C@@H]12 (stereo partly drawn) [Example 300, (1R*,5S*,6s*)-3-{6-[(3,3-Dimethylbutyl)amino]pyrimidin-4-yl}-N,N-dimethyl-3-azabicyclo[3.1.0]hexan-6-amine]",35% at 10 μM

# Same assay, conditions: top dose 10 μM
row,SMILES,"Method 1, activity at top dose (10 μM)"
1,"CC(C)(C)CCNc1cc(N2CCC(N3CCCC3)CC2)ncn1 [Example 301, N-(3,3-Dimethylbutyl)-6-(4-pyrrolidin-1-ylpiperidin-1-yl)pyrimidin-4-amine]",No activity at top
